pIC50: −log10 of the molar value.
Tests used:
[1] = tested on: IL3000 T. congolense (drug sensitive) strain; experiment: In vitro Alamar Blue 72 h drug sensitivity assay for T. congolense; type: cell-based; conditions: Trypanosoma congolense; bloodstream form, 69 h + 3 h resazurin, 34° C.; classes A-C; read-out: IC50: I Org. Growth T. congolense IL-3000, 3 d
How it was run: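 Bloodstream-form trypanosomes in HMI medium with 20% bovine serum, exposed to compound for 69 h at 34 °C, 5% CO2, then resazurin for 3 h more. Fluorescence read at 536/588 nm. IC50 from 11-point sigmoidal dose-response curves, at least three independent runs.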

[2] = tested on: luciferase-expressing L. major parasites developing intracellularly inside RAW 264.7 macrophages; experiment: Leishmania major intracellular amastigote assay in RAW 264.7 macrophages (luciferase); type: cell-based; conditions: RAW264.7, 96 hours, read-out: IC50: I Org. intracellular amastigote Growth L. major, 4 d
How it was run: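 RAW 264.7 macrophages infected overnight with luciferase-expressing L. major promastigotes, washed of extracellular parasites, then exposed to two-fold compound dilutions (final 0.5-10,000 ng/ml) for 96 h at 37° C, 5% CO2. Luciferin luminescence after 30 min; IC50 by sigmoidal variable-slope regression.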

Compound	pIC50 [1]	pIC50 [2]
COc1ccc(-n2cc(C(=O)Nc3ccc4c(c3)B(O)OC4C)nn2)cc1 (stereo not drawn) [Example 22, N-(1-hydroxy-3-methyl-1,3-dihydrobenzo[c][1,2]oxaborol-6-yl)-1-(4-methoxyphenyl)-1H-1,2,3-triazole-4-carboxamide]	6.52 to 7.00	≥ 6.00
O=C(Nc1ccc2c(c1)B(O)OC2)c1nnn(-c2cccc(F)c2)c1C(F)(F)F [Example 69, 1-(3-Fluorophenyl)-N-(1-hydroxy-1,3-dihydrobenzo[c][1,2]oxaborol-6-yl)-5-(trifluoromethyl)-1H-1,2,3-triazole-4-carboxamide]	6.52 to 7.00	≥ 6.00
Cc1c(C(=O)Nc2ccc3c(c2)B(O)OC3C)nnn1-c1cccnc1 (stereo not drawn) [Example 14]	> 7.00	5.00 to 5.96
Cc1ccc(-n2cc(C(=O)Nc3ccc4c(c3)B(O)OC43CCC3)nn2)cc1 [Example 15]	6.52 to 7.00	4.30 to 5.00
O=C(Nc1ccc2c(c1)B(O)OC2)c1cn(-c2ccc(F)cc2)nn1 [Example 60, 1-(4-Fluorophenyl)-N-(1-hydroxy-1,3-dihydrobenzo[c][1,2]oxaborol-6-yl)-1H-1,2,3-triazole-4-carboxamide]	> 7.00	–
Cc1ccc(-n2cc(C(=O)Nc3ccc4c(c3)B(O)OC4)nn2)cc1 [Example 10, N-(1-hydroxy-1,3-dihydrobenzo[c][1,2]oxaborol-6-yl)-1-(p-tolyl)-1H-1,2,3-triazole-4-carboxamide]	> 7.00	≥ 6.00
Cc1c(C(=O)Nc2ccc3c(c2)B(O)OC3)nnn1-c1cccnc1 [Example 93, N-(1-hydroxy-1,3-dihydrobenzo[c][1,2]oxaborol-6-yl)-5-methyl-1-(pyridin-3-yl)-1H-1,2,3-triazole-4-carboxamide]	6.52 to 7.00	4.30 to 5.00
Cc1ccc(-n2nnc(C(=O)Nc3ccc4c(c3)B(O)OC4C)c2C)cc1 (stereo not drawn) [Example 13, N-(1-hydroxy-3-methyl-1,3-dihydrobenzo[c][1,2]oxaborol-6-yl)-5-methyl-1-(p-tolyl)-1H-1,2,3-triazole-4-carboxamide]	6.52 to 7.00	5.00 to 5.96
O=C(Nc1ccc2c(c1)B(O)OC21CCC1)c1cn(-c2ccccn2)nn1 [Example 26, N-(1-hydroxy-1H-spiro[benzo[c][1,2]oxaborole-3,1′-cyclobutan]-6-yl)-1-(pyridin-2-yl)-1H-1,2,3-triazole-4-carboxamide]	4.00 to 6.51	5.00 to 5.96
COc1ccc(-n2cc(C(=O)Nc3ccc4c(c3)B(O)OC43CCC3)nn2)cc1 [Example 25, N-(1-hydroxy-1H-spiro[benzo[c][1,2]oxaborole-3,1′-cyclobutan]-6-yl)-1-(4-methoxyphenyl)-1H-1,2,3-triazole-4-carboxamide]	4.00 to 6.51	4.30 to 5.00
O=C(Nc1ccc2c(c1)B(O)OC2)c1nnn(-c2ccc(F)cc2)c1C(F)(F)F [Example 70, 1-(4-Fluorophenyl)-N-(1-hydroxy-1,3-dihydrobenzo[c][1,2]oxaborol-6-yl)-5-(trifluoromethyl)-1H-1,2,3-triazole-4-carboxamide]	6.52 to 7.00	≥ 6.00
Cc1ccc(-n2nnc(C(=O)Nc3ccc4c(c3)B(O)OC4)c2C)cc1 [Example 11, N-(1-hydroxy-1,3-dihydrobenzo[c][1,2]oxaborol-6-yl)-5-methyl-1-(p-tolyl)-1H-1,2,3-triazole-4-carboxamide]	> 7.00	5.00 to 5.96
O=C(Nc1ccc2c(c1)B(O)OC2)c1nnn(-c2ccccc2)c1C(F)(F)F [Example 68, N-(1-hydroxy-1,3-dihydrobenzo[c][1,2]oxaborol-6-yl)-1-phenyl-5-(trifluoromethyl)-1H-1,2,3-triazole-4-carboxamide]	–	≥ 6.00
Cc1c(C(=O)Nc2ccc3c(c2)B(O)OC3C)nnn1-c1ccc(F)cc1 (stereo not drawn) [Example 6, 1-(4-fluorophenyl)-N-(1-hydroxy-3-methyl-1,3-dihydrobenzo[c][1,2]oxaborol-6-yl)-5-methyl-1H-1,2,3-triazole-4-carboxamide]	6.52 to 7.00	≥ 6.00
Cc1c(C(=O)Nc2ccc3c(c2)B(O)OC3)nnn1-c1ccccn1 [Example 84, N-(1-hydroxy-1,3-dihydrobenzo[c][1,2]oxaborol-6-yl)-5-methyl-1-(pyridin-2-yl)-1H-1,2,3-triazole-4-carboxamide]	> 7.00	5.00 to 5.96
Cc1c(C(=O)Nc2ccc3c(c2)B(O)OC32CCC2)nnn1-c1cccnc1 [Example 17, N-(1-hydroxy-1H-spiro[benzo[c][1,2]oxaborole-3,1′-cyclobutan]-6-yl)-5-methyl-1-(pyridin-3-yl)-1H-1,2,3-triazole-4-carboxamide]	4.00 to 6.51	4.30 to 5.00
O=C(Nc1ccc2c(c1)B(O)OC2)c1cn(-c2ccccn2)nn1 [Example 61, N-(1-hydroxy-1,3-dihydrobenzo[c][1,2]oxaborol-6-yl)-1-(pyridin-2-yl)-1H-1,2,3-triazole-4-carboxamide]	> 7.00	5.00 to 5.96

Compound	pIC50 [1]	pIC50 [2]
O=C(Nc1ccc2c(c1)B(O)OC21CCC1)c1cn(-c2ccc(F)cc2)nn1 [Example 7, 1-(4-fluorophenyl)-N-(1-hydroxy-1H-spiro[benzo[c][1,2]oxaborole-3,1′-cyclobutan]-6-yl)-1H-1,2,3-triazole-4-carboxamide]	4.00 to 6.51	5.00 to 5.96
O=C(Nc1ccc2c(c1)B(O)OC2)c1nnn(-c2ccccc2F)c1C(F)(F)F [Example 67, 1-(2-Fluorophenyl)-N-(1-hydroxy-1,3-dihydrobenzo[c][1,2]oxaborol-6-yl)-5-(trifluoromethyl)-1H-1,2,3-triazole-4-carboxamide]	6.52 to 7.00	≥ 6.00
COc1ccc(-n2nnc(C(=O)Nc3ccc4c(c3)B(O)OC43CCC3)c2C)cc1 [Example 20, N-(1-hydroxy-1H-spiro[benzo[c][1,2]oxaborole-3,1′-cyclobutan]-6-yl)-1-(4-methoxyphenyl)-5-methyl-1H-1,2,3-triazole-4-carboxamide]	4.00 to 6.51	4.30 to 5.00
Cc1ccc(-n2nnc(C(=O)Nc3ccc4c(c3)B(O)OC43CCC3)c2C)cc1 [Example 16, N-(1-hydroxy-1H-spiro[benzo[c][1,2]oxaborole-3,1′-cyclobutan]-6-yl)-5-methyl-1-(p-tolyl)-1H-1,2,3-triazole-4-carboxamide]	4.00 to 6.51	4.30 to 5.00
CC1OB(O)c2cc(NC(=O)c3cn(-c4ccccc4)nn3)ccc21 (stereo not drawn) [Example 2]	> 7.00	≥ 6.00
CC1OB(O)c2cc(NC(=O)c3cn(-c4ccccn4)nn3)ccc21 (stereo not drawn) [Example 23, N-(1-hydroxy-3-methyl-1,3-dihydrobenzo[c][1,2]oxaborol-6-yl)-1-(pyridin-2-yl)-1H-1,2,3-triazole-4-carboxamide]	> 7.00	≥ 6.00
CC1OB(O)c2cc(NC(=O)c3cn(-c4cccnc4)nn3)ccc21 (stereo not drawn) [Example 12, N-(1-hydroxy-3-methyl-1,3-dihydrobenzo[c][1,2]oxaborol-6-yl)-1-(pyridin-3-yl)-1H-1,2,3-triazole-4-carboxamide]	> 7.00	5.00 to 5.96
COc1ccc(-n2nnc(C(=O)Nc3ccc4c(c3)B(O)OC4)c2C)cc1 [Example 91, N-(1-hydroxy-1,3-dihydrobenzo[c][1,2]oxaborol-6-yl)-1-(4-methoxyphenyl)-5-methyl-1H-1,2,3-triazole-4-carboxamide]	6.52 to 7.00	5.00 to 5.96
Cc1c(C(=O)Nc2ccc3c(c2)B(O)OC32CCC2)nnn1-c1ccc(F)cc1 [Example 9, 1-(4-fluorophenyl)-N-(1-hydroxy-1H-spiro[benzo[c][1,2]oxaborole-3,1′-cyclobutan]-6-yl)-5-methyl-1H-1,2,3-triazole-4-carboxamide]	4.00 to 6.51	4.30 to 5.00
Cc1c(C(=O)Nc2ccc3c(c2)B(O)OC3C)nnn1-c1ccccn1 (stereo not drawn) [Example 24, N-(1-hydroxy-3-methyl-1,3-dihydrobenzo[c][1,2]oxaborol-6-yl)-5-methyl-1-(pyridin-2-yl)-1H-1,2,3-triazole-4-carboxamide]	> 7.00	≥ 6.00
O=C(Nc1ccc2c(c1)B(O)OC21CCC1)c1cn(-c2cccnc2)nn1 [Example 8, N-(1-hydroxy-1H-spiro[benzo[c][1,2]oxaborole-3,1′-cyclobutan]-6-yl)-1-(pyridin-3-yl)-1H-1,2,3-triazole-4-carboxamide]	4.00 to 6.51	4.30 to 5.00
Cc1c(C(=O)Nc2ccc3c(c2)B(O)OC3)nnn1-c1ccccc1 [Example 89, A-(1-hydroxy-1,3-dihydrobenzo[c][1,2]oxaborol-6-yl)-5-methyl-1-phenyl-1H-1,2,3-triazole-4-carboxamide]	–	≥ 6.00
CC1OB(O)c2cc(NC(=O)c3cn(-c4ccc(F)cc4)nn3)ccc21 (stereo not drawn) [Example 5]	6.52 to 7.00	≥ 6.00
Cc1c(C(=O)Nc2ccc3c(c2)B(O)OC32CCC2)nnn1-c1ccccc1 [Example 4, N-(1-hydroxy-1H-spiro[benzo[c][1,2]oxaborole-3,1′-cyclobutan]-6-yl)-5-methyl-1-phenyl-1H-1,2,3-triazole-4-carboxamide]	6.52 to 7.00	≥ 6.00
Cc1ccc(-n2cc(C(=O)Nc3ccc4c(c3)B(O)OC4C)nn2)cc1 (stereo not drawn) [Example 18, N-(1-hydroxy-3-methyl-1,3-dihydrobenzo[c][1,2]oxaborol-6-yl)-1-(p-tolyl)-1H-1,2,3-triazole-4-carboxamide]	> 7.00	≥ 6.00
COc1ccc(-n2nnc(C(=O)Nc3ccc4c(c3)B(O)OC4C)c2C)cc1 (stereo not drawn) [Example 19, N-(1-hydroxy-3-methyl-1,3-dihydrobenzo[c][1,2]oxaborol-6-yl)-1-(4-methoxyphenyl)-5-methyl-1H-1,2,3-triazole-4-carboxamide]	6.52 to 7.00	≥ 6.00

From patent publication US11691992B2 (Anacor Pharmaceuticals, Inc., priority 2017, dated 2023)
